# According to PubChem BioAssay AID424 (Public Access to Neuroactive & Anticonvulsant Chemical …, 2006):
# Tests used:
# [1] = seizure model ED50 and toxic TD50 values – quantitative, MES, scMET, kindled rat, Frings mice, in vivo study, summary (AID 424)
# [2] = tested on: mouse i.p. maximal electroshock seizure protection, ED50; assay: as above
# [3] = measured here: kindled rat ED50
Compound,ED50 ([1]; Frings audiogenic mouse ED50) [mg/kg],TD50 ([1]; i.p. mouse neurotoxicity TD50) [mg/kg],ED50 ([1]; i.p. mouse scBic ED50) [mg/kg],ED50 ([1]; i.p. mouse scMET ED50) [mg/kg],ED50 ([1]; i.p. mouse scPic ED50) [mg/kg],ED50 ([1]; i.p. rat MES ED50) [mg/kg],ED50 ([1]; oral mouse MES ED50) [mg/kg],ED50 ([1]; oral mouse scMET ED50) [mg/kg],ED50 ([1]; oral rat MES ED50) [mg/kg],ED50 ([1]; oral rat scMET ED50) [mg/kg],TD50 ([1]; oral rat toxicity TD50) [mg/kg],ED50 [2] [mg/kg],"ED50 [2, 3] [mg/kg]"
O=C1CN=C(c2ccccc2Cl)c2cc([N+](=O)[O-])ccc2N1,0.105,0.264,0.039,0.024,0.074,0.67,42.8,0.03,7.86,0.607,2.38,25.5,0.79
CCC1(C)CC(=O)NC1=O (configuration not stated),328,341,272,136,226,> 220,> 1000,203,> 500,167,> 500,–,–
CCN(CC)CC(=O)Nc1c(C)cccc1C,–,65.1,> 70,> 66,> 70,–,21,> 140,31.2,> 250,283,14.4,–
NC(=O)N1c2ccccc2C=Cc2ccccc21,11.2,45.4,> 50,> 50,18.2,4.05,11.9,40.9,5.35,> 250,364,7.81,28.2
CCC1(c2ccccc2)C(=O)NC(=O)NC1=O,–,45.5,37.7,13.9,27.5,2.61,–,–,8.26,26.1,51,11.3,19.7
